Measured values published in BindingDB's records for doi:10.1021/acsmedchemlett.1c00445 (Janssen Research & Development, 2022).

test: Inhibition of human amyloid beta (1 to 42) in human SKNBE2 cells expressing wild-type amyloid precursor protein hAPP695 incubated for 18 hrs by sandwich ELISA

Question: For `C[C@@]1(c2cc(NC(=O)c3cnc(C(F)F)cn3)ccc2F)Cn2nc(C#N)cc2C(N)=N1`, which IC50 is on record?
Answer: 2.5 nM

Question: With `C[C@@]1(c2cc(NC(=O)c3ccc(F)cn3)ccc2F)Cn2nc(C#N)cc2C(N)=N1` as the molecule, how does the IC50 read?
Answer: 2.6 nM

Question: For `C[C@@]1(c2cc(NC(=O)c3ccc(C#N)cn3)ccc2F)Cn2cc(C#N)nc2C(N)=N1`, which IC50 is on record?
Answer: 8.5 nM

Question: With `COc1cnc(C(=O)Nc2ccc(F)c([C@]3(C)Cn4nc(C#N)cc4C(N)=N3)c2)cn1` as the molecule, how does the IC50 read?
Answer: 1.3 nM

Question: For `COc1cnc(C(=O)Nc2ccc(F)c([C@]3(C)Cn4c(C#N)cnc4C(N)=N3)c2)cn1`, which IC50 is on record?
Answer: 6.3 nM

Question: For `C[C@@]1(c2cc(NC(=O)c3ccc(C#N)cn3)ccc2F)Cn2nc(C#N)cc2C(N)=N1`, which IC50 is on record?
Answer: 1 nM

Question: With `C[C@@]1(c2cc(NC(=O)c3ccc(OC(F)F)cn3)ccc2F)Cn2nc(C#N)cc2C(N)=N1` as the molecule, how does the IC50 read?
Answer: 1 nM

Question: With `C[C@@]1(c2cc(NC(=O)c3ccc(F)cn3)ccc2F)Cn2c(C#N)cnc2C(N)=N1` as the molecule, how does the IC50 read?
Answer: 13 nM

Question: Which IC50 does the source give for `C[C@@]1(c2cc(NC(=O)c3ccc(C#N)cn3)ccc2F)Cn2c(C#N)cnc2C(N)=N1` here?
Answer: 3.3 nM

Question: With `C[C@@]1(c2cc(NC(=O)c3ccc(Cl)cn3)ccc2F)Cn2c(C#N)cnc2C(N)=N1` as the molecule, how does the IC50 read?
Answer: 3.6 nM

Question: Which IC50 does the source give for `C[C@@]1(c2cc(NC(=O)c3cnc(OCF)cn3)ccc2F)Cn2nc(C#N)cc2C(N)=N1` here?
Answer: 1.2 nM

Question: With `Cc1nc(C(=O)Nc2ccc(F)c([C@]3(C)Cn4nc(C#N)cc4C(N)=N3)c2)co1` as the molecule, how does the IC50 read?
Answer: 4.8 nM
